Experimental data reported in US10709709B2, “Substituted carbonucleoside derivatives useful as anticancer agents” (Pfizer Inc., priority 2016, dated 2020).
pIC50: −log10 of the molar value.

Columns and labels:
[1] = molecular target: PRMT5/MEP50 protein complex (Homo sapiens (Human), UniProt O14744); assay: PRMT5 biochemical assay (3H-SAM methylation of H4(1-21) peptide, filter plate scintillation); conditions: 10 nM PRMT5/MEP50 complex, 200 nM H4(1-21) peptide, 1 uM SAM, 25 minute incubation at room temperature
Chain of PRMT5/MEP50 protein complex (O14744 other isoform, or with tags, fused parts or gaps): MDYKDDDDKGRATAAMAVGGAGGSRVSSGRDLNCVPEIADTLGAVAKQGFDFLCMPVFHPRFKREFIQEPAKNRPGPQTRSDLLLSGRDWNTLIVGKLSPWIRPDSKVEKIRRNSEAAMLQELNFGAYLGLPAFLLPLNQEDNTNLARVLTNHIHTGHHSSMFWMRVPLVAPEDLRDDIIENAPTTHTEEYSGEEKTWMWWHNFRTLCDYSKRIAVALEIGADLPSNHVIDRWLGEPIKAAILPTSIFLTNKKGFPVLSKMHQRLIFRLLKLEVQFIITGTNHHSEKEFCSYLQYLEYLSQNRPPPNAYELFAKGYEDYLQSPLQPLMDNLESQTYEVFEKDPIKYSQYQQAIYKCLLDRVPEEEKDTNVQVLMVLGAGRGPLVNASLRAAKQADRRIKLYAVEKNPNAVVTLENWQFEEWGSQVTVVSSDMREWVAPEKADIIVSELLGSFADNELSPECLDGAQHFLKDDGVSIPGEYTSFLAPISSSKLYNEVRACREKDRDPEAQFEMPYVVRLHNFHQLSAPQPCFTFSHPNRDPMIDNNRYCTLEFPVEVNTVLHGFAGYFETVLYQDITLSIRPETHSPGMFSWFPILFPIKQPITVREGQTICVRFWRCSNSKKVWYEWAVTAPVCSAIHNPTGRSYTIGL
Chain of PRMT5/MEP50 protein complex (Q9BQA1 whole entry partner): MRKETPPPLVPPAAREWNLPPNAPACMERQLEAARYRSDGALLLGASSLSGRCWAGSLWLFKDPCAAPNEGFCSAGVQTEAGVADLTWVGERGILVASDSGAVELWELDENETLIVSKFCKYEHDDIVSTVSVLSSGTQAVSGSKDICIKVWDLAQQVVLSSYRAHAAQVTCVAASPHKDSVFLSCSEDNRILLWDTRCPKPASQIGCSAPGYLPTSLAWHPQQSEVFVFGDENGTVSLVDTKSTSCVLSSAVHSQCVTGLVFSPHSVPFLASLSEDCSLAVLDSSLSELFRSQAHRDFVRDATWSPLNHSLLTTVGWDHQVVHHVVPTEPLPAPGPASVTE
In short: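 Scintillation read-out: after 25 min at room temperature and a TCA stop, tritiated H4(1-21) product (peptide 200 nM) is caught on a filter plate. Reaction holds 10 nM PRMT5/MEP50 and 1 uM 3H-labelled plus cold SAM in 50 mM Tris pH 8.5 with MgCl2, EDTA and TCEP. IC50 values come from a 4-parameter dose-response fit.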

[2] = test system: A549 lung adenocarcinoma cells; assay: A549 proliferation assay (Cell Titer Glo); type: cell-based; conditions: 7 days with compound, cell viability by Cell Titer Glo (ATP)
In short: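 A549 cells plated overnight, then treated with nine-point 3.3-fold dilutions (final top 10 μM, 0.2% DMSO) for 7 days at 37 °C, with media and compound refreshed on day 4. Viability measured as ATP by Cell Titer Glo luminescence; IC50 from 4-parameter fit normalized to DMSO control.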

Structure (SMILES)	pIC50 [1]	pIC50 ([2]; Homo sapiens, A549, 168 h)	pIC50 [2]
Cc1cc2c(c(O[C@H]3C[C@@H](n4cc(Br)c5c(N)ncnc54)[C@H](O)[C@@H]3O)c1)CNCC2 [Example 123, (1S,2S,3R,5S)-3-(4-amino-5-bromo-7H-pyrrolo[2,3-d]pyrimidin-7-yl)-5-((6-methyl-1,2,3,4-tetrahydroisoquinolin-8-yl)oxy)cyclopentane-1,2-diol]	8.70	6.34	
Cc1nc(N)c2c(F)cn([C@@H]3C[C@H](Oc4ccc(F)c5c4CNCC5)[C@@H](O)[C@H]3O)c2n1 [Example 126, (1S,2S,3R,5S)-3-(4-amino-5-fluoro-2-methyl-7H-pyrrolo[2,3-d]pyrimidin-7-yl)-5-((5-fluoro-1,2,3,4-tetrahydroisoquinolin-8-yl)oxy)cyclopentane-1,2-diol]	9.00	6.30	
Cc1ncc2c(F)cn([C@@H]3C[C@H](Oc4cc(Cl)cc5c4CNCC5)[C@@H](O)[C@H]3O)c2n1 [Example 175, (1S,2S,3S,5R)-3-((6-chloro-1,2,3,4-tetrahydroisoquinolin-8-yl)oxy)-5-(5-fluoro-2-methyl-7H-pyrrolo[2,3-d]pyrimidin-7-yl)cyclopentane-1,2-diol]	8.30	5.49	
Cc1ncnc2c1ccn2[C@@H]1C[C@H](Oc2cccc3c2CNC(C)C3)[C@@H](O)[C@H]1O (single isomer, unassigned) [Example 184]	9.00	5.85	
Nc1ncnc2c1c(F)cn2[C@@H]1C[C@H](Oc2cc(Br)c(F)c3c2CNCC3)[C@@H](O)[C@H]1O [Example 109, (1S,2S,3R,5S)-3-(4-amino-5-fluoro-7H-pyrrolo[2,3-d]pyrimidin-7-yl)-5-((6-bromo-5-fluoro-1,2,3,4-tetrahydroisoquinolin-8-yl)oxy)cyclopentane-1,2-diol]	9.00	7.17	
Cc1ncnc2c1ccn2[C@@H]1C[C@H](Oc2ccc(F)cc2[C@H](C)N)[C@@H](O)[C@H]1O [Example 138, (1S,2S,3S,5R)-3-(2-((S)-1-aminoethyl)-4-fluorophenoxy)-5-(4-methyl-7H-pyrrolo[2,3-d]pyrimidin-7-yl)cyclopentane-1,2-diol]	8.70	5.83	
Cc1cc2c(c(O[C@H]3C[C@@H](n4ccc5c(C)ncnc54)[C@H](O)[C@@H]3O)c1)CNCC2 [Example 88, (1S,2S,3R,5S)-3-(4-methyl-7H-pyrrolo[2;3-d]pyrimidin-7-yl)-5-[(6-methyl-1,2,3,4-tetrahydroisoquinolin-8-yl)oxy]cyclopentane-1,2-diol]	9.00	6.26	
Cc1ncnc2c1ccn2C1C[C@H](Oc2cccc3ccncc23)[C@@H](O)[C@H]1O (stereo partly drawn) [Example 77, (1S,2S,3S,5R)-3-(isoquinolin-8-yloxy)-5-(4-methyl-7H-pyrrolo[2,3-d]pyrimidin-7-yl)cyclopentane-1,2-diol]	7.19	5.95	
Cc1ncnc2c1ccn2[C@@H]1C[C@H](Oc2cc(F)cc3c2CNCC3)[C@@H](O)[C@H]1O [Example 85, (1S,2S,3S,5R)-3-((6-fluoro-1,2,3,4-tetrahydroisoquinolin-8-yl)oxy)-5-(4-methyl-7H-pyrrolo[2,3-d]pyrimidin-7-yl)cyclopentane-1,2-diol]	8.70	6.04	
Nc1ncnc2c1c(F)cn2[C@@H]1C[C@H](Oc2cc(F)cc3c2CNCC3)[C@@H](O)[C@H]1O [Example 107, (1S,2S,3R,5S)-3-(4-amino-5-fluoro-7H-pyrrolo[2,3-d]pyrimidin-7-yl)-5-((6-fluoro-1,2,3,4-tetrahydroisoquinolin-8-yl)oxy)cyclopentane-1,2-diol]	9.00	6.00	
CC1CNCc2c(O[C@H]3C[C@@H](n4cc(F)c5c(N)ncnc54)[C@H](O)[C@@H]3O)cc(C(F)F)c(F)c21 (stereo partly drawn) [Example 215, (1S,2S,3R,5S)-3-(4-amino-5-fluoro-7H-pyrrolo[2,3-d]pyrimidin-7-yl)-5-((6-(difluoromethyl)-5-fluoro-4-methyl-1,2,3,4-tetrahydroisoquinolin-8-yl)oxy)cyclopentane-1,2-diol]	9.00		9.00
Cc1ncnc2c1ccn2[C@@H]1C[C@H](Oc2cc(-c3cn[nH]c3)cc3c2CNCC3)[C@@H](O)[C@H]1O [Example 165, (1S,2S,3S,5R)-3-((6-(1H-pyrazol-4-yl)-1,2,3,4-tetrahydroisoquinolin-8-yl)oxy)-5-(4-methyl-7H-pyrrolo[2,3-d]pyrimidin-7-yl)cyclopentane-1,2-diol]	8.70	6.12	
Cc1ncnc2c1ccn2[C@@H]1C[C@H](Oc2cc(Cl)c(F)c3c2CNCC3)[C@@H](O)[C@H]1O [Example 93, (1S,2S,3S,5R)-3-((6-chloro-5-fluoro-1,2,3,4-tetrahydroisoquinolin-8-yl)oxy)-5-(4-methyl-7H-pyrrolo[2,3-d]pyrimidin-7-yl)cyclopentane-1,2-diol]	9.00	6.85	
CN1CCc2cccc(O[C@H]3C[C@@H](n4cc(F)c5c(N)ncnc54)[C@H](O)[C@@H]3O)c2C1 [Example 114, (1S,2S,3R,5S)-3-(4-amino-5-fluoro-7H-pyrrolo[2,3-d]pyrimidin-7-yl)-5-((2-methyl-1,2,3,4-tetrahydroisoquinolin-8-yl)oxy)cyclopentane-1,2-diol]	8.40	5.40	
Nc1ncnc2c1c(F)cn2[C@@H]1C[C@H](Oc2cc(F)c(F)c3c2CNCC3)[C@@H](O)[C@H]1O [Example 103, (1S,2S,3R,5S)-3-(4-amino-5-fluoro-7H-pyrrolo[2,3-d]pyrimidin-7-yl)-5-((5,6-difluoro-1,2,3,4-tetrahydroisoquinolin-8-yl)oxy)cyclopentane-1,2-diol]	9.00	6.70	
